Results reported in patent publication US20240425589A1, “CYTOTOXICITY-INDUCING THERAPEUTIC AGENT FOR USE IN TREATMENT OF CANCER” (CHUGAI SEIYAKU KABUSHIKI KAISHA, priority 2021, published 2024).

What was measured:
[1] = test system: CLDN6 expression in NIH:OVCAR-3; experiment: CLDN6 expression by quantitative PCR after TGF-β1; type: cell-based, human; conditions: TGF-β1 10 ng/ml, 5 days, vs untreated
Experimental: Therefore, it was speculated that TGF-β1 induced by treatment with an anticancer agent may affect CLDN6 expression. Accordingly, analyzes were performed to determine whether […] induces CLDN6 expression in the human ovarian cancer cell line (NIH:OVCAR-3, ATCC). Regarding the NIH:OVCAR-3 cells seeded on culture plates, RNAs were purified (RNeasy Mini Kit, QIAGEN) from untreated cells or from cells collected 5 days after addition of TGF-β1 (R & D Systems, 10 ng/ml), and then cDNA synthesis (Superscript IV VILO Master Mix, ThermoFisher) was performed. By using the cDNAs as templates, real-time PCR was performed using CLDN6-specific primers (Power SYBR (registered trademark) Green Master Mix, ThermoFisher) to analyze CLDN6 expression (QuantStudio 12K Flex Real-Time PCR System, ThermoFisher).
The same primers as those in the above-mentioned Example 21.1 were used as the primers for human CLDN6 and for the primers for human GAPDH used as the internal control.

[2] = test system: CLDN6 expression in NIH:OVCAR-3, COV413A, COV413B, COV362; experiment: CLDN6 expression by FACS after TGF-β1; type: cell-based, human; conditions: TGF-β1 10 ng/mL, four days, vs untreated
Experimental: Next, analyses were performed to determine whether TGF-β1 induces CLDN6 expression in other ovarian cancer cell lines. In addition to NIH:OVCAR-3 cells, COV413A cells (ECACC), COV413B (ECACC), and COV362 (ECACC) were seeded on culture plates, and TGF-β1 was added at 10 ng/mL. Four days later, cells were recovered, and CLDN6 expression was analyzed by FACS analysis.
In the FACS analysis, cells were detached from the culturing flask to produce a cell suspension, these cells were stained using an anti-CLDN6 antibody (CS4135 mIgG1: the heavy-chain and light-chain amino acid sequences are shown in SEQ ID NOs: 210 and 211, respectively, and the heavy-chain and light-chain nucleotide sequences are shown in SEQ ID NOs: 212 and 213, respectively) labeled with Alexa Flour 488 (Alexa Fluor 488 antibody labeling kit, ThermoFisher Scientific), and the amount of CLDN6 expression was analyzed using a flow cytometer (FACSlyric, BD Biosciences). The CS4135 mIgG1 antibody is a chimeric antibody produced by linking the Fc region of a mouse IgG1 to the Fab of the CS4135 antibody.

With “TGF-β1: TGF-β1 (R & D Systems) added to cells at 10 ng/ml” the CLDN6 expression [1] was “Increase in CLDN6 expression was observed” and the CLDN6 expression [2] was “increased CLDN6 expression”.
